Values quoted from earlier work in patent publication US20040185057A1, “Therapeutical vaccination” (priority 2001, published 2004).
Read-outs that look alike come from different tables or passages of the source.

Assays:
[1] = tested on: HLA-A2 super type MHC class-I molecule, allele A*6802; conditions: HLA-A2 allele A*6802; read-out: Binding capacity, IC50

Molecule	immunomodulating effect (concentrations in the pg range)	immunomodulating effect (concentrations in the μg range)	IC50 [1] [nM]
CC(=O)O[C@@H]1[C@H](O[C@@H]2O[C@@H](CO)[C@H](O)[C@H]2O)[C@@H](O[C@@H]2O[C@@H](C)[C@H](O[C@@H]3OC[C@@H](O)[C@H](O)[C@H]3O)[C@@H](O)[C@H]2O)[C@H](OC(=O)[C@]23CCC(C)(C)C[C@H]2C2=CC[C@@H]4[C@@]5(C)CC[C@H](O[C@@H]6O[C@H](C(=O)O)[C@@H](O)[C@H](O[C@@H]7OC[C@@H](O)[C@H](O)[C@H]7O)[C@H]6O[C@@H]6O[C@H](CO)[C@H](O)[C@H](O)[C@H]6O)[C@@](C)(C=O)[C@H]5CC[C@@]4(C)[C@]2(C)CC3)O[C@@H]1C [Squarroside A]	stimulant effect	suppressive effect	–
AIIRILQQL	–	–	548
KMIGGIGGFI	–	–	3330
LLQLTVWGI	–	–	645
LTFGWCFKL	–	–	5.6
LTFGWCFKLV	–	–	6.2
LVGPTPVNI	–	–	67.8
MASDFNLPPV	–	–	18.2
MTNNPPIPV	–	–	12.1
RILQQLLFI	–	–	1820
SLLNATDIAV	–	–	5480
